The values that follow come from patent US20130190314A1, “DERIVATIVES OF 6-CYCLOAMINO-2-THIENYL-3-(PYRIDIN-4-YL)IMIDAZO[1,2-b]-PYRIDAZINE AND 6-CYCLOAMINO-2-FURANYL-3-(PYRIDIN-4-YL)IMIDAZO[1,2-b]-PYRIDAZINE, PREPARATION AND THERAPEUTIC USE THEREOF” (priority 2008, published 2013).

Data set [1] concerns the target T1, casein kinase 1 epsilon (CK1 epsilon) (Homo sapiens, UniProt P49674).
T1 construct: Invitrogen Corporation (alternative)
The data set can be described thus: Filter-plate assay of ATP-33P: inhibition of phosphorylation of casein by CK1 epsilon. The conditions noted are these: casein substrate, 10 μM ATP, 2 hours at ambient temperature. It counts as biochemical. Here is the method:
The capacity of the compounds of the invention to inhibit the phosphorylation of casein by casein kinase 1 epsilon and delta can be evaluated according to the procedure described in document US 2005/0131012.
Filter-Plate Assay of ATP-^33P for the Screening of CK1 Epsilon Inhibitors:
The effect of the compounds on inhibition of the phosphorylation of casein by the enzyme casein kinase 1 epsilon (CK1 epsilon) is measured using a casein assay with filtration of ATP-^33P in vitro.
Casein kinase 1 epsilon (0.58 mg/ml) is obtained via fermentation and purification processes carried out according to methods well known to those skilled in the art, or may also be obtained from Invitrogen Corporation™ (human CK1 epsilon).
The compounds are tested at five different concentrations so as to generate IC50 values, i.e. the concentration at which a compound is capable of inhibiting the enzymatic activity by 50%, or alternatively the % inhibition at a concentration of 10 micromolar.
“U”-bottomed Falcon plates are prepared by placing 5 μl of solutions of the compounds according to the invention at concentrations of 10, 1, 0.1, 0.01 or 0.001 μM in various wells. The solutions of the compounds according to the invention at these various concentrations are prepared by diluting in a test buffer (50 mM Tris, pH 7.5, […], 2 mM DTT and 1 mM EGTA) a stock solution in DMSO at a concentration of 10 mM. Next, 5 μl of dephosphorylated casein are added to a final concentration of 0.2 μg/μl, 20 μl of CK1 epsilon are added to a final concentration of 3 ng/μl, and 20 μl of ATP-^33P are added to a final concentration of 0.02 μCi/μl mixed with cold ATP (10 μM final—approximately 2×10^6 CPM per well). The final total test volume per well is equal to 50 μl.
The “U”-bottomed Falcon® test plate mentioned above is vortexed, and then incubated at ambient temperature for 2 hours. After 2 hours, the reaction is stopped by adding an ice-cold solution of 65 μl of cold ATP (2 mM) prepared in test buffer. 100 μl of the reaction mixture are then transferred from the “U”-bottomed Falcon®plate into Millipore MAPH filter plates, preimpregnated with 25 μl of ice-cold 100% TCA. […]
The plates are left to dry overnight at ambient temperature. […] The radiation emitted by each well is then measured for 2 minutes in a Packard® Topcount NXT scintillation counter, in which the values of CPM/well are measured.
The % inhibition of the capacity of the enzyme to phosphorylate the substrate (casein) is determined for each concentration of compound tested. These inhibition data expressed as percentages are used to calculate the IC50 value for each compound compared with the controls.
The kinetic studies determined the KM value for ATP as being 21 μM in this test system.

Data set [2] deals with Mper1-luc Rat-1 (P2C4) fibroblasts. Kind of data set: Circadian cell assay: mPer1-promoter luciferase reporter, period prolongation. It counts as cell-based. The conditions noted are these: effective concentration that induced a 1-hour prolongation of the circadian period. Here is the method:
Mper1-luc Rat-1 (P2C4) fibroblast cultures were prepared by dividing the cultures every 3-4 days (approximately 10-20% of confluence) on 150 cm^2 degassed polystyrene tissue culture flasks (Falcon® #35-5001) and maintained in growth medium [EMEM (Cellgro #10-010-CV); 10% foetal bovine serum (FBS; Gibco #16000-044); and 50 I.U./ml of penicillin-streptomycin (Cellgro #30-001-CI)] at 37° C. and under 5% CO2.
Cells obtained from Rat-1 fibroblast cultures at 30-50% of confluence as described above were co-transfected with vectors containing the selectable marker for zeocin resistance for a stable transfection and a luciferase reporter gene controlled by the mPer-1 promoter. After 24 to 48 hours, the cultures were divided on 96-well plates and maintained in growth medium supplemented with 50-100 μg/ml of zeocin (Invitrogen® #45-0430) for 10-14 days. The zeocin-resistant stable transfectants were evaluated for the expression of the reporter gene by adding 100 μM luciferin (Promega® #E1603®) to the growth medium and by assaying the luciferase activity on a TopCount® scintillation counter (Packard Model #C384V00). The Rat-1 cell clones expressing both zeocin resistance and luciferase activity controlled by mPer1 were serum-shock synchronized with 50% horse serum [HS (Gibco® #16050-122)] and the activity of the circadian reporter was evaluated. The P2C4 clone of Mper1-luc Rat-1 fibroblasts was selected to test the compound.
Mper1-luc Rat-1 (P2C4) fibroblasts at 40-50% of confluence, obtained according to the protocol described above, were plated out onto 96-well opaque tissue culture plates (Perkin Elmer® #6005680). The cultures are maintained in growth medium supplemented with 100 μg/mL of zeocin (Invitrogen #45-0430) until they have reached 100% of confluence (48-72 h). The cultures were then synchronized with 100 μl of synchronization medium [EMEM (Cellgro #10-010-CV); 100 I.U./ml of penicillin-streptomycin (Cellgro #30-001-C1); HS at 50% (Gibco #16050-122)] for 2 hours at 37° C. and under 5% CO2. After synchronization, the cultures were rinsed with 100 μl of EMEM (Cellgro #10-010-CV) for 10 minutes at ambient temperature. After rinsing, the medium was replaced with 300 μl of CO2 independent medium [CO2I (Gibco #18045-088); 2 mM L-glutamine (Cellgro #25-005-C1); 100 I.U./ml of penicillin-streptomycin (Cellgro #30-001-C1); 100 μM luciferin (Promega #E 1603)]. […]
The period analysis was performed either by determining the interval between the relative light emission minima over several days or by Fourier transform. […] The data were analysed by adjusting a hyperbolic curve to the data expressed as change of period (Y-axis) as a function of the concentration of the test compound (X-axis) in the XLfit™ software, and the CE Delta (t+1 h) was interpolated from this curve.

T1 sequence (P49674 whole entry): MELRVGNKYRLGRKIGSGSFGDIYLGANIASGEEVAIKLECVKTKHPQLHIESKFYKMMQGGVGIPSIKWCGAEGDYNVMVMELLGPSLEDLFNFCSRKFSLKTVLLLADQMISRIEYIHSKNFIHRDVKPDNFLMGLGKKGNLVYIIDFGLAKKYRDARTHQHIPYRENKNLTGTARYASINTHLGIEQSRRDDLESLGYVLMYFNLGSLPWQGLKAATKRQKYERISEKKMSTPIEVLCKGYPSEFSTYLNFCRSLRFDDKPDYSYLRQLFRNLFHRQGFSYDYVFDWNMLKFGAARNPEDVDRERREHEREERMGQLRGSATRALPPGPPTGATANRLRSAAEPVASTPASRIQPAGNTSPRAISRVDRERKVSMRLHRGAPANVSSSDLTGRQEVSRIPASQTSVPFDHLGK

`C[C@@H]1CN(c2ccc3nc(-c4ccc(Cl)s4)c(-c4ccncc4)n3n2)C[C@H](C)N1` [Compound 13, 2-(5-chlorothien-2-yl)-6-[(cis)-3,5-dimethylpiperazin-1-yl]-3-(pyridin-4-yl)imidazo[1,2-b]pyridazine] showed a melting point of 220 to 222 °C.

Compound `Cc1ccc(-c2nc3ccc(N4CCN(CC(C)(C)O)CC4)nn3c2-c2ccncc2)o1` [Compound 29, 2-methyl-1-{4-[2-(5-methylfuran-2-yl)-3-pyridin-4-ylimidazo[1,2-b]pyridazin-6-yl]piperazin-1-yl}propan-2-ol] gave a melting point of 147 to 149 °C.

`c1csc(-c2nc3ccc(N4CC5CCCNC5C4)nn3c2-c2ccncc2)c1` (stereo not drawn) [Compound 7, 6-(Octahydro-6H-pyrrolo[3,4-b]pyridin-6-yl)-3-(pyridin-4-yl)-2-(thien-2-yl)imidazo[1,2-b]pyridazine] had a melting point of 176 to 179 °C.

As for `Cc1ccc(-c2nc3ccc(N4CCN(CCO)CC4)nn3c2-c2ccncc2)o1` [Compound 28, 2-{4-[2-(5-methylfuran-2-yl)-3-pyridin-4-ylimidazo[1,2-b]pyridazin-6-yl]piperazin-1-yl}ethanol], the melting point was in the range of 190 to 192 °C.

In turn, `c1csc(-c2nc3ccc(N4C[C@H]5CNC[C@H]5C4)nn3c2-c2ccncc2)c1` [Compound 6, 6-[(cis)-hexahydropyrrolo[3,4-c]pyrrol-2(1H)-yl]-3-(pyridin-4-yl)-2-(thien-2-yl)imidazo[1,2-b]pyridazine] displayed a melting point of 179 to 183 °C.

`c1csc(-c2nc3ccc(N4CCC5(CCCNC5)CC4)nn3c2-c2ccncc2)c1` [Compound 8, 9-(3-(pyridin-4-yl)-2-(thien-2-yl)imidazo[1,2-b]pyridazin-6-yl)-2,9-diazaspiro[5.5]undecane] gave a melting point of 184 to 189 °C.

For the compound `c1csc(-c2nc3ccc(N4CCNCC4)nn3c2-c2ccncc2)c1` [Compound 1, 6-(piperazin-1-yl)-3-(pyridin-4-yl)-2-(thien-2-yl)imidazo[1,2-b]pyridazine], the melting point was in the range of 217 to 220 °C.

On to `c1cc(-c2c(-c3ccsc3)nc3ccc(N4CCC5(CCCNC5)CC4)nn23)ccn1` [Compound 22, 9-[3-(pyridin-4-yl)-2-(thien-3-yl)imidazo[1,2-b]pyridazin-6-yl]-2,9-diazaspiro[5.5]undecane], for which the melting point was in the range of 133 to 168 °C.

For `CN1C[C@@H]2CN(c3ccc4nc(-c5ccc(Cl)s5)c(-c5ccncc5)n4n3)C[C@@H]2C1` [Compound 15, 2-(5-chlorothien-2-yl)-6-[(cis)-5-methylhexahydropyrrolo[3,4-c]pyrrol-2(1H)-yl]-3-(pyridin-4-yl)imidazo[1,2-b]pyridazine], the melting point is 217 to 220 °C.

As to `c1cc(-c2c(-c3ccsc3)nc3ccc(N4CCC(N5CCCC5)CC4)nn23)ccn1` [Compound 23, 3-(pyridin-4-yl)-6-(4-pyrrolidin-1-ylpiperidin-1-yl)-2-(thien-3-yl)imidazo[1,2-b]pyridazine], the melting point fell in the range of 168 to 170 °C.

Take `Cc1ccc(-c2nc3ccc(N4C[C@H]5CN(C)C[C@H]5C4)nn3c2-c2ccncc2)o1` [Compound 33, 2-(5-Methylfuran-2-yl)-6-[(cis)-5-methylhexahydropyrrolo[3,4-c]pyrrol-2(1H)-yl]-3-(pyridin-4-yl)imidazo[1,2-b]pyridazine]: the melting point fell in the range of 178 to 181 °C.

Consider `CC(C)(O)CN1CCN(c2ccc3nc(-c4ccsc4)c(-c4ccncc4)n3n2)CC1` [Compound 19, 2-methyl-1-[4-(3-(pyridin-4-yl)-2-(thien-3-yl)imidazo[1,2-b]pyridazin-6-yl)piperazin-1-yl]propan-2-ol], for which the melting point fell in the range of 178 to 180 °C.

As for `CC(C)(O)CN1CCN(c2ccc3nc(-c4ccoc4)c(-c4ccncc4)n3n2)CC1` [Compound 31, 1-[4-(2-furan-3-yl-3-pyridin-4-ylimidazo[1,2-b]pyridazin-6-yl)piperazin-1-yl]-2-methylpropan-2-ol], the melting point is 139 to 149 °C.

For the compound `CN1C[C@@H]2CN(c3ccc4nc(-c5ccoc5)c(-c5ccncc5)n4n3)C[C@@H]2C1` [Compound 34], in data set [1], the IC50 was determined as 0.015 µM. Also, in data set [2], the “CE Delta (t + 1 h)” value stood at 17 nM.

For the compound `CN1CCN(c2ccc3nc(-c4ccsc4)c(-c4ccncc4)n3n2)CC1` [Compound 18, 6-(4-methylpiperazin-1-yl)-3-(pyridin-4-yl)-2-(thien-3-yl)imidazo[1,2-b]pyridazine], the melting point fell in the range of 177 to 179 °C. This compound came in with an IC50 in data set [1] of 0.025 µM. Besides, the “CE Delta (t + 1 h)” value in data set [2] lay in the range of 74 to 83 nM.
